The test system of one data set is HCC38. The data set can be described thus: MTT cytotoxicity assay. To be noted: Homo sapiens, 24 h incubation, mean ± SEM. The format is cell-based. The procedure: (§1) Cell viability was determined using the metabolic microplate spectrophotometric assay with Methylthiazolyl diphenyltetrazolium bromide (MTT), i.e., 3-(4,5-Dimethyl-2-thiazolyl)-2,5-diphenyl-2H-tetrazolium bromide (Sigma-Aldrich; St. Louis, MO, USA). The anticancer activity of the investigated compounds was evaluated in vitro on the basis of their ability to inhibit the proliferation of various cancer cells. The appropriate number of cells for a given cell line (6–8 × 10^3 cells/mL) were seeded into sterile, colorless 96-well microplates. After 24 h of culture, specific wells of the microplate were treated with test compounds (10–200 µmol/L concentration) and incubated in a CO2 incubator for 24 h. The medium was then removed, the cell monolayer was washed twice with sterile PBS solution and fresh culture medium was added to the wells of the microplate.
(§2) After 48 h of cell culture, the MTT test was conducted. In each well of the microplate, 50 µL of tetrazolium salt solution (final concentration 0.05 mg/mL) was added. The microplate was then placed in a CO2 incubator for 3–4 h (depending on the cell line). Following incubation, 100 µL of DMSO (dimethyl sulfoxide, Sigma-Aldrich, St. Louis, MO, USA) was added to the microplate wells to dissolve the purple formazan crystals formed in the environment of living cells. The absorbance of the formazan solution was read at a wavelength of λ = 580 nm and a reference wavelength of λ = 720 nm after gentle mixing (Biotek Power Wave HT, Biotek Instruments, Winooski, VT, USA).
(§3) The percentage of live cells was calculated by comparing the absorbance value of the tested samples with that of the control (cells not treated with compounds). Control absorbance was arbitrarily considered to be 100%.
(§4) In order to determine the contribution of ROS to the cytotoxicity of the tested compounds, the cells were pre-incubated for 1 h with the antioxidant vitamin E (Trolox, Sigma-Aldrich; St. Louis, MO, USA). Cells were seeded into sterile, colorless 96-well microplates at a concentration of 6–8 × 10^3 cells/mL, depending on the cell line. After 24 h of culture, Trolox was added at a final concentration of 50 μM/well. After 1 h of incubation, the antioxidant was washed off, then appropriate concentrations of test compounds (10–200 µmol/L concentration) were added to fresh cell culture medium and incubated for 24 h. The MTT test was then performed under identical experimental conditions, as described in Section 3.1.2.

For another data set, the system named is Hec-1-A. Kind of data set: MTT cytotoxicity assay. The format is cell-based. To be noted: Homo sapiens, 24 h incubation, mean ± SEM. As to the method: as §1, §2, §3, §4
A further data set has as its system MCF-7. The data set can be described thus: MTT cytotoxicity assay. To be noted: Homo sapiens, MCF7, 24 h incubation, mean ± SEM. The format is cell-based. The procedure: as §1, §2, §3, §4
Background: Tetrazolium dyes change colour on reduction, which living cells bring about.

The next data set relates to MDA-MB-231. Kind of data set: MTT cytotoxicity assay. The format is cell-based. The settings on record: Homo sapiens, 24 h incubation, mean ± SEM. As to the method:
as §1, §2, §3, §4

In the next data set the test system is Ishikawa. The data set can be described thus: MTT cytotoxicity assay. The format is cell-based. The settings on record: Homo sapiens, Ishikawa, 24 h incubation, mean ± SEM. As to the method:
as §1, §2
The percentage of live cells was calculated by comparing the absorbance value of the tested samples with that of the control (cells not treated with compounds). Control absorbance was arbitrarily considered to be 100%. […]

The test system of data set [1] is breast cancer cells (MCF-7, MDA-MB-231 and HCC38) and endometrial cancer cells (Ishikawa, Hec-1-A). Kind of data set: MTT cytotoxicity assay, summary over the cell lines. The settings on record: for cytotoxic activity (in words): range of 10–200 µM, all cancer lines. It is filed as cell-based, human. As to the method: as §1, §2
The percentage of live cells was calculated by comparing the absorbance value of the tested samples with that of the control (cells not treated with compounds). Control absorbance was arbitrarily considered to be 100%. […] Moreover, cisplatin (Sigma-Aldrich, St. Louis, MO, USA) was used as a reference compound, and identical incubation conditions were used as described above.

Another data set concerns cancer cells. The data set can be described thus: Reactive oxygen species generation (results not published). The format is cell-based.
The nature of data set [2]: Isothermal titration calorimetry (ITC) of inclusion complex formation. It is filed as physicochemical. To be noted: DMSO, 25 °C. As to the method: Measurements were carried out using a MicroCal VP-ITC100 microcalorimeter equipped with a 1400 μL measurement cell. All titrations were carried out under isothermal conditions at 25 degrees C in DMSO solution, which was used as a solvent. The mixing speed during the measurements was 351 rpm. The 0.2 mM solution of the ligand (3, 3a and 5) located in the measurement cell was titrated with the cyclodextrin solution located in the syringe. Each measurement consisted of 50 injections of cyclodextrin with a volume of 5 uL and a concentration of 5 mM. The interval between individual injections was 300 s. The effect of direct interaction of the ligand with CD was calculated by subtracting the thermal effects of diluting 5 mM cyclodextrin in a pure solvent. The dilution effect of the 0.2 mM ligand solution was negligible. The results obtained were processed in the MicroCall Origin 7 software. Using a single active site model (ITC Tutorial Guide), the stability constant K of the resulting complex, its stoichiometry n and thermodynamic parameters that describe the ongoing process were determined, viz., enthalpy (ΔH), Gibbs free energy (ΔG) and entropy (ΔS).

A short description of data set [3]: Water solubility by UV–Vis spectrophotometry (phase solubility with cyclodextrins). The settings on record: 25 °C, thermodynamic from solid, 298.15 K, without cyclodextrin, read-out: Solubility in H2O. The format is physicochemical. As to the method:
Spectrophotometric measurements were performed using a SPECORD 50 single-beam UV–Vis spectrophotometer (Analyst Jena, Thuringia, Germany). The calibration lines of the compounds tested were determined for the concentration range of 3.0 × 10^−6 M to 1 × 10^−4 M (Figure 21). The molar extinction coefficients for 3, 3a, and 5 were determined experimentally in an aqueous ethanol solution; the relevant maximum wavelengths are presented in Table 9. The influence of α-cyclodextrins, β-cyclodextrins and HP-β-cyclodextrins on the solubility of the tested ligands in water was evaluated in three measurement series. Briefly, excess ligand was introduced into closed Eppendorff tubes containing α-CD, β-CD or HP-β-CD solutions, at concentrations ranging from 1 to 90 mM for α-CD and HP-β-CD and from 1 to 15 mM for β-CD. The test tubes were stored for 10 days at a temperature of 298.15 K until equilibrium was achieved. After this time, the solutions were centrifuged using a Microcentrifuge MPW-55 at 13,000 rpm for five minutes. For testing, a clear solution was taken from above the sediment and diluted appropriately so that the spectrum was within the operating range of the spectrophotometer.

A short description of data set [4]: MTT cytotoxicity assay, model of normal cells. It is filed as cell-based. The settings on record: human, HMEC-1 cells (model of normal cells), 24 h incubation, mean ± SEM, read-out: Cytotoxic effect of analogues incorporated in cyclodextrins and cyclodextrin, IC50. As to the method:
as §1, §2, §3

In a further data set the test system is RBCs. Kind of data set: Erythrocyte morphology, phase contrast microscopy. To be noted: all tested concentrations; 24 h, 37 °C. It is filed as cell-based, human. The procedure:
The experiments on human blood were performed in accordance with Polish national guidelines, and the study protocols were approved by the Bioethics Committee of the Medical University of Lodz, Poland: approval no (RNN/104/20/KE). The blood samples were obtained from healthy donors at the Blood Donation Centre in Lodz. The procedure for […] for erythrotoxicity studies is given in a previous paper. The influence of the synthesized compounds, together with a reference compound on RBC membrane integrity, was performed by lysis assay, described elsewhere. Briefly, 2% RBC suspension in 0.9% NaCl was incubated at 37 °C for 24 h with the tested compounds at concentrations of 100 µmol/L, 50 µmol/L, 25 µmol/L, 10 µmol/L and 1 µmol/L. The samples were centrifuged at 3000 rpm for 10 min, and the absorbance of the supernatant was measured at 550 nm. The results are presented as a percentage of hemolysis where a sample containing 10 μL of 2.0% v/v Triton X-100 was regarded as a positive control contributing to 100% of hemolysis. A sample containing saline solution represented the spontaneous hemolysis of RBCs (control). The experiments were conducted using at least three different biological materials (n = 3). […] Additionally, erythrocyte morphology was evaluated using a phase contrast Opta-Tech inverted microscope at 400× magnification.

[5] abbreviates: read-out: Cytotoxic effect, IC50.
Where [6] appears, read: read-out: Cytotoxic effect of analogues incorporated in cyclodextrins and cyclodextrin, IC50.

In brackets after ≈: the same amount, converted by molar mass. Like-named read-outs stand apart in the source and are kept apart here. Bounds are passed on as bounds.

For the compound `COc1cccc(C2CN=NC23C(=O)c2ccccc2OC3c2ccccc2)c1` (stereo not drawn) [Compound 3a], the IC50 was over 120 µM with HCC38 (setting [5]); 67.2 ± 2.5 µM with Hec-1-A (setting [5]); 84.2 ± 2.2 µM in the data set on MCF-7 (setting [5]); over 120 µM in the data set on MDA-MB-231 (setting [5]); 68.5 ± 4.6 µM in the data set with Ishikawa (setting [5]). Also, the “cytotoxic activity (in words)” value in [1] is given as “very weak cytotoxic activity”. The “changes in the level of reactive oxygen species generation (in words)” value (“changes in the level” below) in the data set on cancer cells is “no statistically significant changes”. For the same compound, the “K (formation constant)” value in data set [2] (HP-β-cyclodextrin) was 5.66 × 10^3 ± 390; in data set [2] (α-cyclodextrin), 1.51 × 10^3 ± 130; in data set [2] (β-cyclodextrin) it was 2.49 × 10^3 ± 200. For the same compound, the “n (stoichiometry)” value in [2] (HP-β-cyclodextrin) turned out to be 0.98 ± 0.09; in data set [2] (α-cyclodextrin) it was 0.85 ± 0.13; in data set [2] (β-cyclodextrin) it was 0.92 ± 0.11. The figures for the ΔG in data set [2] (HP-β-cyclodextrin), in [2] (α-cyclodextrin) and in data set [2] (β-cyclodextrin) were −21,420.7 J mol^−1, −18,145.5 J mol^−1 and −19,385.4 J mol^−1, respectively. For the same compound, the ΔH is -0.185 ± 0.0141 kcal/mol in [2] (HP-β-cyclodextrin), -0.0669 ± 0.021 kcal/mol in data set [2] (α-cyclodextrin) and -0.202 ± 0.017 kcal/mol in data set [2] (β-cyclodextrin). Besides, the results for the ΔS in data set [2] (HP-β-cyclodextrin), in [2] (α-cyclodextrin) and in data set [2] (β-cyclodextrin) were 69.3 J mol^−1K^−1, 59.9 J mol^−1K^−1 and 62.2 J mol^−1K^−1, respectively. Moreover, the solubility at 10 days in data set [3] came to 1.55 µM (≈ 0.596 µg/mL).
As to `CCN(CC)c1ccc(/C=C2/C(=O)c3ccccc3OC2c2ccccc2)cc1` (stereo not drawn) [Compound 2], the 50% inhibitory concentration (IC50) in the data set on HCC38 (setting [5]) is over 200 µM; with Hec-1-A (setting [5]), over 200 µM; with MCF-7 (setting [5]) it was 122 ± 6.7 µM; in the data set on MDA-MB-231 (setting [5]) it was over 200 µM; with Ishikawa (setting [5]) it was over 200 µM. In addition, the “cytotoxic activity (in words)” value in [1] was “very weak cytotoxic activity”. Further, the “changes in the level” value in the data set on cancer cells is reported as “no statistically significant changes”.
For the compound `OC[C@H]1O[C@@H]2O[C@H]3[C@H](O)[C@@H](O)[C@@H](O[C@H]4[C@H](O)[C@@H](O)[C@@H](O[C@H]5[C@H](O)[C@@H](O)[C@@H](O[C@H]6[C@H](O)[C@@H](O)[C@@H](O[C@H]7[C@H](O)[C@@H](O)[C@@H](O[C@H]8[C@H](O)[C@@H](O)[C@@H](O[C@H]1[C@H](O)[C@H]2O)O[C@@H]8CO)O[C@@H]7CO)O[C@@H]6CO)O[C@@H]5CO)O[C@@H]4CO)O[C@@H]3CO` [β-CD, β-cyclodextrin, reference compound], the concentration for half-maximal inhibition (IC50) in the data set on HCC38 (setting [6]), with Hec-1-A (setting [6]), in the data set on MCF-7 (setting [6]), with MDA-MB-231 (setting [6]) and with Ishikawa (setting [6]) was over 120 µM each time. Moreover, the 50% inhibitory concentration (IC50) at 24 h in data set [4] is over 120 µM. Besides, in [1] (HMEC-1 endothelial cells or any tested cancer cells, 10–120 µM), the “cytotoxic activity of pure cyclodextrin (in words)” value is “not found to demonstrate any cytotoxic activity”. Also, the “RBC morphology (in words)” value in the data set with RBCs is recorded as “no pathological changes in RBCs or damaged cells were observed”.
`Cc1ccc(/C=C2/C(=O)c3ccccc3OC2c2ccccc2)cc1` (stereo not drawn) [Compound 4]: the IC50 was 93.2 ± 2.8 µM in the data set with HCC38 (setting [5]); 44.6 ± 4.5 µM in the data set with Hec-1-A (setting [5]); 53.4 ± 4.1 µM with MCF-7 (setting [5]); over 120 µM in the data set with MDA-MB-231 (setting [5]); 48.9 ± 6.1 µM with Ishikawa (setting [5]). In data set [1], the “cytotoxic activity (in words)” value is “very weak cytotoxic activity”. The “changes in the level” value with cancer cells is listed as “no statistically significant changes”.

Broadly, the IC50 is the concentration needed to halve the response being measured. Broadly, the solubility is the dissolved amount per volume that the medium holds.

The record behind these values is paper PMC11312998, “Molecular Pro-Apoptotic Activities of Flavanone Derivatives in Cyclodextrin Complexes: New Implications for Anticancer Therapy” (International Journal of Molecular Sciences, 2024).
